Laboratory results reported in ChEMBL document CHEMBL5223100, “Homobivalent, Trivalent, and Covalent PROTACs: Emerging Strategies for Protein Degradation” (J Med Chem, 2022).
Blank lines part the entries; values can stand above or below the compound they belong to.

Assays:
RPMI-8226 [1] = assay: Antiproliferative activity against human RPMI-8226 cells; assay type: functional, cell-based
RPMI-8226 [2] = assay: Induction of hRpn13Pru degradation in human RPMI-8226 cells assessed as maximum degradation at 50 uM relative to control; assay type: cell-based
[3] = Induction of hRpn13Pru degradation in human RPMI-8226 cells; assay type: cell-based
Hepatitis C virus [4] = assay: Antiviral activity against HCV harboring NS3 V55A mutant; assay type: functional, organism-based, Hepacivirus hominis
Hepatitis C virus [5] = assay: Antiviral activity against wild type HCV; assay type: functional, organism-based, Hepacivirus hominis
[6] = Induction of HCV NS3 degradation after 4 hrs; design: species or system Hepacivirus hominis
[7] = target: Hepatitis C virus serine protease, NS3/NS4A (Hepatitis C virus, UniProt A3EZI9+D2K2A8); assay: Inhibition of HCV NS3/4a protease in Huh7.5 SGR cells using [Ac-DE-D(Edans)-EE-Abu-[COO]AS-K(Dabcyl)-NH2] as substrate preincubated for 15 mins followed by substrate addition and incubated for 1 hr by FRET assay; assay type: cell-based, Hepacivirus hominis
PC-3 = assay: Antiproliferative activity against human PC-3 cells after 72 hrs; assay type: functional, cell-based; settings: PC-3, 72 h
[8] = target: Cyclin-dependent kinase 9 (Homo sapiens) (UniProt P50750); assay: Induction of CDK9 degradation in human MOLT-4 cells assessed as maximum degradation after 16 hrs relative to control; assay type: cell-based
CWR22R = assay: Antiproliferative activity against human 22Rv1 cells after 72 hrs; assay type: functional, cell-based; settings: 22Rv1, 72 h
[9] = target: von Hippel-Lindau disease tumor suppressor (Homo sapiens, UniProt P40337); assay: Binding affinity to VHL (unknown origin)
HEK293 = assay: Induction of HaloTag7 fused GFP degradation in HEK293 cells assessed as maximum degradation relative to control; assay type: cell-based; settings: Homo sapiens
[10] = Induction of HaloTag7 fused GFP degradation in HEK293 cells; assay type: cell-based; settings: Homo sapiens
MOLM-14 = assay: Antiproliferative activity against human MOLM-14 cells; assay type: functional, cell-based
[11] = Antiproliferative activity against human MINO cells; assay type: functional, cell-based
[12] = target: T1, Tyrosine-protein kinase BTK (Homo sapiens, UniProt Q06187); assay: Induction of BTK degradation in human MOLM-14 cells assessed as maximum degradation at 200 nM relative to control; assay type: cell-based
[13] = target: T1, Tyrosine-protein kinase BTK; assay: Induction of BTK degradation in human MOLM-14 cells; assay type: cell-based
[14] = target: T2, Bromodomain-containing protein 4 (Homo sapiens, UniProt O60885); assay: Induction of BRD4 degradation in HEK293 cells assessed as maximum degradation after 8 hrs relative to control; assay type: cell-based
Protein fem-1 homolog B = Protein fem-1 homolog B (Homo sapiens, UniProt Q9UK73); assay: Binding affinity to FEM1B (unknown origin)
[15] = target: T2, Bromodomain-containing protein 4; assay: Induction of BRD4 degradation in HEK293 cells after 8 hrs; assay type: cell-based
[16] = target: T2, Bromodomain-containing protein 4; assay: Induction of BRD4 degradation in 231MFP cells; assay type: cell-based
[17] = target: T3, Phosphatidylinositol 3-kinase catalytic subunit type 3 (Homo sapiens, UniProt Q8NEB9); assay: Induction of VPS34 degradation in HEK293 cells assessed as maximum degradation after 30 mins relative to control; assay type: cell-based
[18] = target: Serine/threonine-protein kinase Sgk3 (Homo sapiens, UniProt Q96BR1); assay: Induction of SGK3 degradation in HEK293 cells; assay type: cell-based
[19] = target: T3, Phosphatidylinositol 3-kinase catalytic subunit type 3; assay: Induction of VPS34 degradation in HEK293 cells assessed as maximum degradation at 300 nM after 48 hrs relative to control; assay type: cell-based
[20] = target: T3, Phosphatidylinositol 3-kinase catalytic subunit type 3; assay: Induction of VPS34 degradation in HEK293 cells; assay type: cell-based
[21] = target: Serine/threonine-protein kinase Sgk3 (Homo sapiens) (UniProt Q96BR1); assay: Induction of SGK3 degradation in HEK293 cells assessed as maximum degradation after 30 mins relative to control; assay type: cell-based
[22] = target: Serine/threonine-protein kinase Sgk3 (Homo sapiens) (UniProt Q96BR1); assay: Induction of SGK3 degradation in HEK293 cells assessed as maximum degradation at 300 nM after 48 hrs relative to control; assay type: cell-based
[23] = target: T2, Bromodomain-containing protein 4; assay: Induction of BRD4 long isoform degradation in human 231MFP cells; assay type: cell-based
[24] = target: T2, Bromodomain-containing protein 4; assay: Induction of BRD4 short isoform degradation in human 231MFP cells; assay type: cell-based
[25] = target: E3 ubiquitin-protein ligase RNF114 (Homo sapiens, UniProt Q9Y508); assay: Binding affinity to RNF114 (unknown origin)
Protein cereblon = Protein cereblon (Homo sapiens, UniProt Q96SW2); assay: Displacement of dBET6 from CRBN (unknown origin) transfected in BRD4 BD2-GFP mCherry report cells incubated for 5 hrs

SMILES: CCC[C@H](NC(=O)[C@@H]1[C@H]2CCC[C@H]2CN1C(=O)[C@@H](NC(=O)[C@@H](NC(=O)c1cnc(C(=O)NCCOCCOCCOc2cc3c4c(cccc4c2)C(=O)N(C2CCC(=O)NC2=O)C3=O)cn1)C1CCCCC1)C(C)(C)C)C(=O)C(=O)NC1CC1 (stereo partly specified)
IC50 (Hepatitis C virus [4]): 508 nM
IC50 (Hepatitis C virus [5]): 558 nM
DC50 [6]: 50 nM
IC50 [7]: 247 nM

SMILES: COc1cc(/C=C/C(=O)N2CCC=CC2=O)cc(OC)c1OCCN1CCN(C(=O)CN2CCC(C(=O)Nc3ncc(SCc4ncc(C(C)(C)C)o4)s3)CC2)CC1
EC50 (PC-3): 6.4 nM
Emax [8]: 96%
EC50 (CWR22R): 4.4 nM

SMILES: Cc1ncsc1-c1ccc(CNC(=O)[C@@H]2C[C@@H](O)CN2C(=O)[C@H](C(C)C)N2Cc3ccccc3C2=O)c(OCCOCCOCCOCCCCCCCl)c1
IC50 [9]: 540 nM
Emax (HEK293): 90%
DC50 [10]: 19 nM

SMILES: Cc1sc2c(c1C)C(c1ccc(Cl)cc1)=N[C@@H](CC(=O)NCCCCCNC(=O)CN1CCOc3cc(N(CCC#N)C(=O)CCl)ccc31)c1nnc(C)n1-2
Emax [14]: 94%
IC50 (Protein fem-1 homolog B): 1500 nM
DC50 [15]: 250 nM
DC50 [16]: 198 nM

SMILES: Cc1ncsc1-c1ccc(CNC(=O)[C@@H]2C[C@@H](O)CN2C(=O)[C@@H](NC(=O)C2(C#N)CC2)C(C)(C)C)c(OCCOCCOCCOCCCCCCCl)c1
Emax [17]: 50%
DC50 [18]: 3 nM
Emax [19]: 95%
DC50 [20]: 3 nM
Emax [21]: 50%
Emax [22]: 95%

SMILES: COC(=O)C[C@H]1[C@]2(C)C3=C(C)[C@H](c4ccoc4-c4ccc(C(=O)NCCCNC(=O)C[C@@H]5N=C(c6ccc(Cl)cc6)C6C(C)=C(C)SC6n6c(C)nnc65)cc4)C[C@H]3O[C@@H]2C2OC(=O)[C@]3(C)C=CC(=O)[C@@]1(C)[C@@H]23 (stereo partly specified)
IC50 [25]: 240 nM

Now from value to compound, other results behind:

IC50 (RPMI-8226 [1]): 4200 nM
DC50 [3]: 39000 nM
SMILES: Cc1ncsc1-c1ccc([C@H](C)NC(=O)[C@@H]2C[C@@H](O)CN2C(=O)[C@@H](NC(=O)CCCCc2cn(-c3ccc(C(=O)Nc4cccc(/C=C(\C#N)C(=O)Nc5ccccc5C(=O)O)c4)cc3)nn2)C(C)(C)C)cc1
Emax (RPMI-8226 [2]): 80%

IC50 (MOLM-14): 300 nM
Emax [12]: 81%
DC50 [13]: 6.6 nM
SMILES: CN(CCCNC(=O)CNc1cccc2c1C(=O)N(C1CCC(=O)NC1=O)C2=O)C(C)(C)/C=C(\C#N)C(=O)N1CCC[C@@H](n2nc(-c3ccc(Oc4ccccc4)cc3)c3c(N)ncnc32)C1 (stereo partly specified)
IC50 [11]: 80 nM

DC50 [23]: 36 nM
DC50 [24]: 14 nM
SMILES: Cc1sc2c(c1C)C(c1ccc(Cl)cc1)=N[C@@H](CC(=O)NCCCCOc1ccc(C3CC(c4ccc(Br)cc4)=NN3C(=O)CCl)cc1)c1nnc(C)n1-2 (stereo partly specified)

EC50 (Protein cereblon): 79 nM
SMILES: C=CC(=O)N1CCN(c2nc(NCCCN3CCN(CCCNc4cccc5c4C(=O)N(C4CCC(=O)NC4=O)C5=O)CC3)nc3c(F)c(-c4cc(O)cc5ccccc45)c(Cl)cc23)CC1 (stereo unspecified)
